Experimental data published in US11752125B2, “Anti-neuroinflammatory and protective compounds in Achillea fragrantissima” (THE STATE OF ISRAEL MINISTRY OF AGRICULTURE & RURAL …, priority 2013, dated 2023).

Test system: primary astrocytes
Assay: Protection of astrocytes from H2O2-induced cell death (LDH)
Assay type: cell-based, rat
Conditions: LDH 20 h later
Experimental: Primary cultures of astrocytes were prepared from cerebral cortices of 1-2 day-old neonatal Wistar rats as described (Elmann et al., 2011b). Fourteen days old astrocytes were used in the experiments. The research was conducted in accordance with the NIH guide for the care and use of laboratory animals, and was approved by the Institutional Animal Care and Use Committee of The Volcani Center, Agricultural Research Organization (IL-135/07, approval date Apr. 11, 2007). All efforts were made to minimize animal suffering and to reduce the number of animals used.
Astrocytes were re-plated at 24-well poly-D-lysine-coated plastic plates at a density of 1×10^5/well, in DMEM w/o Phenol Red containing 2% FBS, 2 mM glutamine, 100 U/mL penicillin, and 100 μg/mL streptomycin. H2O2 in the presence or absence of TTF were added, and cell viability was determined using a commercial colorimetric assay (Roche Applied Science, Germany) according to the manufacturer's instructions. This assay is based on the measurement of lactate dehydrogenase (LDH) activity released from the cytosol of damaged cells into the incubation medium. The absorbance was measured at 492 nm in a plate reader. The percentage of cytotoxicity was calculated according to the following equation, where the “ATriton-x treated cells” is the maximum releasable LDH in the cells:
In order to characterize the ability of TTF to protect against H2O2-induced astrocytic cell death, inventors assessed changes in cell viability using a model in which oxidative stress was induced by the addition of H2O2 to cultures of primary astrocytes. The concentration of H2O2 used in experiments (175-200 μM) resembles the concentration reported in rat striatum under ischemic conditions (Hyslop et al., 1995). […] Following preincubation, H2O2 was added, and cytotoxicity was determined 20 h later using the LDH assay. […] It should be noted that at all concentrations tested, the cytotoxicity of this flavonoid by itself to astrocytes was very low (<11%) as was determined by the LDH method (FIG. 2C). […] The protective activity of TTF was also compared to that of memantine, which is used as a drug for the treatment of Alzheimer's disease.
1. Produce a primary culture of rat brain glial cells according to the method described in “Protective effects of the essential oil of salvia fruticosa and its constituents on astrocytic susceptibility to hydrogen peroxide-induced cell death”. 2009. A. Elmann, S. Mordechay, M. Rindner, O. Larkov, M. Elkabetz, U. Ravid. Journal of agricultural and food chemistry. 57(15):6636-41; 2. Separate astrocytes from other cell types in the culture according to the method described in “Protective effects of the essential oil of salvia fruticosa and its constituents on astrocytic susceptibility to hydrogen peroxide-induced cell death”. 2009. A. Elmann, S. Mordechay, M. Rindner, O. Larkov, M. Elkabetz, U. Ravid. Journal of agricultural and food chemistry. 57(15):6636-41; 3. Incubate the cultured astrocytes (37° C., 5% CO2) for 2 hours with freshly diluted TTF or AcA of the invention; 4. Add 175-200 micromolars of freshly diluted H2O2; 5. Incubate the culture for 20-24 hr (37° C., 5% CO2); 6. Measure cell cytotoxicity and viability by the colorimetric lactate dehydrogenase (LDH) assay (Roche Applied science) according to the manufacturer's instructions, and the crystal violet cell staining as follows: 7. Gently draw out medium from plate; 8. Transfer plate to a chemical hood; 9. Dispense 150 μl 5% formaldehyde (in PBS) to each well and incubate 15 min at RT; 10. Pour out formaldehyde to chemical waste and gently rinse under running tap water; 11. Remove excess water by tapping plate on a tissue paper; 12. Dispense 150 μl crystal violet solution (10 gr/liter, in water) to each well; 13. Incubate 15 min at RT (in the chemical hood); 14. Pour out crystal violet to chemical waste and gently rinse under running tap water until all residual dye is removed; 15. Tap plate on a tissue paper to remove remaining water; 16. […]

[1] = 1 μM (lowest concentration tested), compound added 2 h before H2O2
[2] = 8 μM compound added 2 h before H2O2

## COc1cc(-c2oc3cc(OC)c(OC)c(O)c3c(=O)c2O)ccc1O [TTF, 3,5,4′-trihydroxy-6,7,3′-trimethoxyflavone]
[1]
  protection against H2O2-induced cell death: 24%
[2]
  protection against H2O2-induced cell death: 92%

## C=C1CCC2=C(CO)C(=O)O[C@H]2/C=C(\C)[C@H](OC(C)=O)CC1=O [achillolide A]
H2O2 200 μM added 2 h after compound
  protection of astrocytes from H2O2-induced cell death: protects

## CC12CC3CC(C)(C1)CC(N)(C3)C2 [memantine, reference compound]
[1]
  protection against H2O2-induced cell death: 48%
[2]
  protection against H2O2-induced cell death: 58%

## O=c1c(O)c(-c2ccc(O)c(O)c2)oc2cc(O)cc(O)c12 [quercetin, 3,3′,4′,5,7-Pentahydroxyflavone, reference compound]
10 μM compound added 2 h before H2O2
  protection against H2O2-induced cell death: 36%
